Series [1] concerns the target T1, CYP2D6 (Homo sapiens, UniProt P10635). Kind of series: Human CYP2D6 inhibition test. The class given is biochemical. To be noted: CYP2D6 7.5 pmol/mL; fluorescence substrate AMMC 1.5 μM; 37° C. 30 minutes. The arrangement: purchased BD Gentest 456217. The procedure: Test 3. Human CYP2D6 Inhibition Test
Inhibitory activity evaluation for CYP2D6 was carried out by measuring it in accordance, roughly, with a reference (“Drug Metabolism and Disposition”, 2001, vol. 29, p. 1196-1200).
Final concentrations of the reagents in the enzyme reaction solution were respectively set to CYP2D6=7.5 pmol/mL (manufactured by BD Gentest, Catalog No. 456217), reduced type nicotinamide adenine dinucleotide phosphate (NADPH) regeneration system (0.0081 mM nicotinamide adenine dinucleotide phosphate (NADP+), 0.41 mM glucose-6-phosphate, 0.41 mM MgCl2, 0.4 units glucose-6-phosphate dehydrogenase), and a fluorescence substrate AMMC=1.5 μM, 100 mM potassium phosphate buffer (pH 7.4). Each compound was made into a 50% acetonitrile solution and added to the enzyme reaction solution (acetonitrile final concentration 2.5%). The enzyme reaction was carried out at 37° C. for 30 minutes, the reaction was stopped using a stopping liquid (0.1 M tris(hydroxymethyl)aminomethane (Tris-base):acetonitrile=20:80), and the fluorescence intensity was then measured. The concentration showing 50% inhibition (IC50) was calculated from the thus obtained fluorescence intensity, by defining the enzyme activity at a time of no compound addition as 100%.

In series [2] the target is T2, human CaSR (Homo sapiens, UniProt P41180).
T2 construct: a human CaSR open reading frame (ORF) was contained in the pcDNA3.1/Zeo(+) vector; expressed in transfected cells
T2 sequence (P41180 20-1078): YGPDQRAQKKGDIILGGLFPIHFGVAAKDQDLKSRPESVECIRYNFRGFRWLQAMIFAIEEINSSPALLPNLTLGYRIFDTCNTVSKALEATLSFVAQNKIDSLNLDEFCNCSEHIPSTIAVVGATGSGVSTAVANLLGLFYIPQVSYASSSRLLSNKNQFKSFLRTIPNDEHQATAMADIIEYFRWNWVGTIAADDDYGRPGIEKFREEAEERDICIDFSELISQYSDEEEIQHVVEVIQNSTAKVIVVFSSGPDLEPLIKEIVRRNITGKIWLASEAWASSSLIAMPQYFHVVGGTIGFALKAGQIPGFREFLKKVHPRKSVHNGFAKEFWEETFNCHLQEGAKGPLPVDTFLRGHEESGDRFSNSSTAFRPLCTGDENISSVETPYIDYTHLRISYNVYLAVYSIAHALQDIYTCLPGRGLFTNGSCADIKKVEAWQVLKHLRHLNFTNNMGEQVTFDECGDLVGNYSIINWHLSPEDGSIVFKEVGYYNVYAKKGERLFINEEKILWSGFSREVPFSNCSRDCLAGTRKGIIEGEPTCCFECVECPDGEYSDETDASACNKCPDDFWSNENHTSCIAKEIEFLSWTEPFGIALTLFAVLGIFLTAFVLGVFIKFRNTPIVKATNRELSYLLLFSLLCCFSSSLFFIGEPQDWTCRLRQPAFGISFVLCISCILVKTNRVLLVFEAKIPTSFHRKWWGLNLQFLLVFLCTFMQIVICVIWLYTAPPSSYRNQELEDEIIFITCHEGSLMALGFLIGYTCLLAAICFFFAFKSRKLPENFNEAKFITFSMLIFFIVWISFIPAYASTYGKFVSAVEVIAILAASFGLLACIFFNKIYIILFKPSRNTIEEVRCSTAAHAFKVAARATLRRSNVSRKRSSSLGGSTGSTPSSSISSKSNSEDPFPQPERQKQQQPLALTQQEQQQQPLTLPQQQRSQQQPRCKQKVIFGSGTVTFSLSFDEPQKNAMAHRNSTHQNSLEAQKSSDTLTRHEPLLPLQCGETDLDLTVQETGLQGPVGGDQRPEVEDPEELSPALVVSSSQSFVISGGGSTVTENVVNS
Kind of series: Human calcium sensing receptor (CaSR) agonism test (Fluo-3 / FLIPR). To be noted: HEK 293 cell stably expressing human CaSR; 0.5 mM Ca2+; 2 mM Ca2+ group = 100%; read-out: EC50 (compound concentration showing 50% human CaSR agonistic activity). The class given is cell-based. The text has this: Test 1. Human calcium sensing receptor (CaSR) agonism test
1) Preparation of Human CaSR Expression Vector
A DNA fragment coding for human CaSR was cloned in the standard method.
Illustratively, using 203 to 2387 of NM_000388 as a DNA fragment D4, and 2210 to 3633 as a DNA fragment B2, they were amplified using a human kidney cDNA (manufactured by Invitrogen) as the template and using a DNA polymerase (a registered trade name: Pyrobest, manufactured by Takara Bio), and respectively cloned into a pCR2.1 vector using a pCR2.1-Topo vector (manufactured by Invitrogen). Next, the DNA fragments prepared by digesting the pCR2.1-D4 with SpeI and XbaI were inserted into the same sites of pcDNA3.1/Zeo(+) vector. Successively, the fragments prepared by digesting pCR2.1-B2 with SacI and XbaI were inserted into the SacI and XbaI sites of previously prepared pcDNA3.1/Zeo(+)-D4(SpeI-XbaI), thereby obtaining a human CaSR expression vector pcDNA3.1/Zeo(+)-hCaSR in which a human CaSR open reading frame (ORF) was contained in the pcDNA3.1/Zeo(+) vector.
2) Preparation of Human CaSR Expression Cell
The human CaSR expression vector was transferred into a HEK 293 cell using a transfection reagent (registered trademark: FuGene 6, manufactured by Roche Diagnostics). After the gene transfer, this was cultured in a DMEM (manufactured by Invitrogen) medium containing 40 μg/ml Zeocin (registered trademark, manufactured by Invitrogen) and a 10% fetal bovine serum at 37° C. for 2 weeks in the presence of 5% CO2, thereby obtaining Zeocin-resistant clones. A human CaSR stably expressing HEK 293 clone was obtained from these clones by selection using the responsiveness to extracellular Ca^2+ as an index.
3) Human CaSR Agonism Test
The HEK 293 cell stably expressing human CaSR was inoculated into a poly-D-lysine-coated black clear bottom 96 well plate (manufactured by BD Biosciences). Hanks' balanced salt solution (HBSS) (Ca^2+ (−), Mg^2+ (−), manufactured by Invitrogen) containing a 20 mM HEPES (2-[4-(2-hydroxyethyl)-1-piperazinyl]ethanesulfonic acid) buffer (pH 7.4), 2.5 mM of probenecid (manufactured by Sigma), and 0.1% of bovine serum albumin was prepared as a washing buffer. After the inoculation and the subsequent overnight culturing, the medium was discarded, the washing buffer supplemented with 1 mM CaCl2 and 10 μM Fluo-3 AM (trade name, manufactured by DOJINDO) was added thereto in 100 μl per well portions, and then the incubation was carried out at 37° C. for 1 hour in the presence of 5% CO2. This was washed twice with 200 μl of the washing buffer, replaced by 100 μl of the washing buffer supplemented with 0.5 mM CaCl2 and allowed to stand still for 10 minutes, and then the responsiveness to each compound to be evaluated was detected using a plate reader for fluorometry image analysis use (registered trademark: FLIPR, manufactured by Molecular Devices). In this connection, the compound to be evaluated was used by optionally diluting with the washing buffer supplemented with 0.5 mM Ca^2+.
The human CaSR agonistic activity strength of each compound to be evaluated was calculated by defining the solvent group as 0% and the 2 mM of Ca^2+ in the final concentration group as 100%, and the compound concentration showing 50% activity (EC50) was calculated from a concentration-activity curve by the method of least squares.

Series [3] can be described thus: Measurement of rat plasma calcium concentration. The class given is in vivo. To be noted: normal male rats, single oral administration 3 mg/kg, 2 hours after administration, read-out: Rat plasma calcium concentration reducing ratio (%) 2 hours after administration (3 mg/kg). The procedure: Test 2. Measurement of Rat Plasma Calcium Concentration and Plasma PTH Concentration
The compounds of the present invention were administered to rats, and their influences upon the plasma calcium concentration and the plasma PTH concentration were examined. The test was carried out by single oral administration of the compounds of the present invention and the control compounds to 5 to 6 normal male rats, or male rats with renal failure, respectively As a vehicle group, 0.5% of a methyl cellulose (MC) solution was administered at a dose of 5 ml/kg. As a reference compound, cinacalcet was dissolved in the MC solution and administered at a dose of 3 mg/kg. Each of the compounds of the present invention was dissolved or suspended in the MC solution, and administered at a dose of 1, 3 or 10 mg/kg.
Blood samples were collected from the orbital venous plexus under ether anesthesia before the administration and 2 hours, 4 hours, or 8 hours in some cases, after the administration, and the plasma calcium concentration was measured using Calcium E-Test Wako (manufactured by Wako Pure Chemical Industries), and the plasma PTH concentration was measured using a Rat Intact PTH ELISA Kit (manufactured by Immutopics).

The target in series [4] is T1, CYP2D6. The note with it: reported, Non-Patent Document 4; cited from earlier work.

Structures are written as SMILES. Counter-ions that a name gives are not always drawn. A value given as a limit tells only on which side of the number the result lay.

The values that follow come from US8153658B2, “Piperidine derivative or salt thereof” (Astellas Pharma, Inc., priority 2006, dated 2012).

T1 sequence (P10635 whole entry): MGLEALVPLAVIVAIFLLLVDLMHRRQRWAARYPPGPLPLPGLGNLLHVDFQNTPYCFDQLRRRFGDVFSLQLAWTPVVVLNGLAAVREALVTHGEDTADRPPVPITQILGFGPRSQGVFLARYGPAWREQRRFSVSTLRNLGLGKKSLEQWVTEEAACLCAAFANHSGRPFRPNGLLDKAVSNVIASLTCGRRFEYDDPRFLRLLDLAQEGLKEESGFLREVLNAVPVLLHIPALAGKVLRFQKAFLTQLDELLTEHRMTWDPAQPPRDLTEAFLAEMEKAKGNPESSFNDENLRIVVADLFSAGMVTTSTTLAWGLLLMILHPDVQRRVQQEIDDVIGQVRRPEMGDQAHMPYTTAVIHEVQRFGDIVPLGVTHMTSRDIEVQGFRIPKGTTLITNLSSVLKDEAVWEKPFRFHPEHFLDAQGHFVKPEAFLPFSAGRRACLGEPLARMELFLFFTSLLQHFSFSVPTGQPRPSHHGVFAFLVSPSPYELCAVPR

Consider `C[C@@H](NCC1CCN(c2cccc(C(=O)O)c2)CC1c1ccccc1F)c1cccc2ccccc12` (stereo partly drawn) [Example 35, 3-[3-(2-fluorophenyl)-4-({[(1R)-1-(1-naphthyl)ethyl]amino}methyl)piperidin-1-yl]benzoic acid hydrochloride], for which the IC50 (commonly the concentration that inhibits the measured activity by half) in series [1] was ≥ 20 µM. Moreover, the EC50 in series [2] was found to be 7.6 nM. The inhibition in vivo at 3 mg/kg in series [3] was found to be 33%.
On the same counts, the results for `C[C@@H](NCC1CCN(c2c(F)cc(C(=O)O)cc2F)CC1c1ccccc1)c1cccc2ccccc12` (stereo partly drawn) [Example 52, 3,5-difluoro-4-[4-({[(1R)-1-(1-naphthyl)ethyl]amino}methyl)-3-phenylpiperidin-1-yl]benzoic acid hydrochloride] are ≥ 20 µM, 13 nM and 26%.
For `C[C@@H](NCCCc1cccc(C(F)(F)F)c1)c1cccc2ccccc12` [cinacalcet], in series [4], the “activity to inhibit CYP2D6 (in words)” value is “strong activity to inhibit CYP2D6”.
